From ChEMBL document CHEMBL5113509, “Synthesis and evaluation of 3'- and 4'-substituted cyclohexyl noviomimetics that modulate mitochondrial respiration” (Bioorg Med Chem, 2022)
Active and inactive are the calls of the source. The rule behind the calls is not given here.

Legend:
Homo sapiens = species: Homo sapiens; assay: Disruption of HSP90 alpha (unknown origin) and PPID (unknown origin) at 50 uM measured after 1 hr by AlphaLISA assay relative to control
N2a [1] = assay: Cytoprotective activity against mouse N2a cells assessed as increase in mitochondrial ATP production at 100 to 1000 nM measured by Seahorse extracellular flux analyzer based assay; format: functional, cell-based; conditions: dose 100-1000 nM
N2a [2] = assay: Cytoprotective activity against mouse N2a cells assessed as decrease in mitochondrial ATP production at 100 to 1000 nM measured by Seahorse extracellular flux analyzer based assay; format: functional, cell-based; conditions: dose 100-1000 nM

| Activity (Homo sapiens) | SMILES | Activity (N2a [1]) | Activity (N2a [2]) |
| --- | --- | --- | --- |
| > 50% | CC(=O)NCCc1ccc(O[C@H]2CC[C@H](S(=O)(=O)Cc3ccccc3)CC2)cc1-c1cccc(F)c1 | Active |  |
| > 50% | CC(=O)NCCc1ccc(O[C@H]2CC[C@@H](Oc3ccccc3)CC2)cc1-c1cccc(F)c1 | Active |  |
| > 50% | CC(=O)NCCc1ccc(O[C@H]2CCC[C@@H](CCc3ccccc3)C2)cc1-c1cccc(F)c1 | Active |  |
| > 50% | CC(=O)NCCc1ccc(O[C@H]2CC[C@@H](S(=O)(=O)Cc3ccccc3)CC2)cc1-c1cccc(F)c1 | Active |  |
| < 50% | CC(=O)NCCc1ccc(O[C@@H]2CCC[C@@H](N(C)c3ccccc3)C2)cc1-c1cccc(F)c1 | Active |  |
| > 50% | CC(=O)NCCc1ccc(O[C@H]2CC[C@@H](Oc3ccccc3Cl)CC2)cc1-c1cccc(F)c1 | Active |  |
|  | CC(=O)NCCc1ccc(O[C@H]2CC[C@@H](SCc3ccccc3)CC2)cc1-c1cccc(F)c1 | Active |  |
| > 50% | CC(=O)NCCc1ccc(O[C@H]2CC[C@H](Oc3ccccc3Cl)CC2)cc1-c1cccc(F)c1 | Active |  |
| > 80% | CC(=O)NCCc1ccc(O[C@H]2CCC[C@@H](Nc3ccccc3)C2)cc1-c1cccc(F)c1 | Active |  |
| > 50% | CC(=O)NCCc1ccc(O[C@H]2CC[C@H](Sc3ccccc3)CC2)cc1-c1cccc(F)c1 | Active |  |
| > 50% | CC(=O)NCCc1ccc(O[C@@H]2CCC[C@@H](CCc3ccccc3)C2)cc1-c1cccc(F)c1 | Active |  |
| > 50% | CC(=O)NCCc1ccc(O[C@H]2CC[C@H](Oc3ccc(Cl)cc3Cl)CC2)cc1-c1cccc(F)c1 | Active |  |
| < 50% | CC(=O)NCCc1ccc(O[C@H]2CC[C@H](Nc3ccccc3)CC2)cc1-c1cccc(F)c1 | Active |  |
|  | O[C@H]1CC[C@H](Oc2cccc(Cl)c2)CC1 | Active |  |
| < 50% | CC(=O)NCCc1ccc(O[C@H]2CC[C@H](SCc3ccccc3)CC2)cc1-c1cccc(F)c1 | Active |  |
| > 50% | CC(=O)NCCc1ccc(O[C@H]2CC[C@H](Oc3ccc(Cl)cc3)CC2)cc1-c1cccc(F)c1 |  | Active |
| > 50% | CC(=O)NCCc1ccc(O[C@H]2CCC[C@@H](OCc3ccccc3)C2)cc1-c1cccc(F)c1 | Active |  |
| < 50% | CC(=O)NCCc1ccc(O[C@H]2CC[C@H](N(C)c3ccccc3)CC2)cc1-c1cccc(F)c1 | Active |  |
| > 50% | CC(=O)NCCc1ccc(O[C@H]2CC[C@@H](Oc3ccc(Cl)cc3Cl)CC2)cc1-c1cccc(F)c1 | Active |  |
| > 50% | CC(=O)NCCc1ccc(O[C@@H]2CCC[C@H](Sc3ccccc3)C2)cc1-c1cccc(F)c1 | Active |  |
| > 50% | CC(=O)NCCc1ccc(O[C@@H]2CCC[C@@H](SCc3ccccc3)C2)cc1-c1cccc(F)c1 | Active |  |
| < 50% | CC(=O)NCCc1ccc(O[C@@H]2CCC[C@@H](Nc3ccccc3)C2)cc1-c1cccc(F)c1 | Active |  |
| > 50% | CC(=O)NCCc1ccc(O[C@H]2CC[C@H](Cc3ccccc3)CC2)cc1-c1cccc(F)c1 | Active |  |
| > 50% | CC(=O)NCCc1ccc(O[C@H]2CC[C@@H](S(=O)(=O)c3ccccc3)CC2)cc1-c1cccc(F)c1 | Active |  |
|  | CC(=O)NCCc1ccc(O[C@H]2CC[C@@H](OCc3ccccc3)CC2)cc1-c1cccc(F)c1 | Active |  |
| > 50% | CC(=O)NCCc1ccc(O[C@H]2CC[C@@H](Cc3ccccc3)CC2)cc1-c1cccc(F)c1 | Active |  |

| Activity (Homo sapiens) | SMILES | Activity (N2a [1]) | Activity (N2a [2]) |
| --- | --- | --- | --- |
|  | CC(=O)NCCc1ccc(OC2CCC(Oc3ccccc3)[C@H](O)[C@@H]2O)cc1-c1cccc(F)c1 (stereo partly drawn) | Active |  |
| > 50% | CC(=O)NCCc1ccc(O[C@H]2CC[C@H](Oc3ccccc3)CC2)cc1-c1cccc(F)c1 | Active |  |
|  | O[C@H]1CC[C@@H](Oc2ccc(Cl)cc2)CC1 | Active |  |
| > 50% | CC(=O)NCCc1ccc(O[C@H]2CC[C@H](Oc3cccc(Cl)c3)CC2)cc1-c1cccc(F)c1 |  | Active |
| > 50% | CC(=O)NCCc1ccc(O[C@H]2CC[C@H](S(=O)(=O)c3ccccc3)CC2)cc1-c1cccc(F)c1 | Active |  |
|  | O[C@H]1CC[C@@H](Oc2cccc(Cl)c2)CC1 | Active |  |
|  | CC(=O)NCCc1ccc(O[C@H]2CCC[C@@H](SCc3ccccc3)C2)cc1-c1cccc(F)c1 | Active |  |
| > 50% | CC(=O)NCCc1ccc(O[C@H]2CC[C@@H](Sc3ccccc3)CC2)cc1-c1cccc(F)c1 | Active |  |
| < 50% | CC(=O)NCCc1ccc(O[C@H]2CCC[C@@H](N(C)c3ccccc3)C2)cc1-c1cccc(F)c1 | Active |  |
| < 50% | CC(=O)NCCc1ccc(O[C@@H]2CCC[C@@H](OCc3ccccc3)C2)cc1-c1cccc(F)c1 | Active |  |
| > 50% | CC(=O)NCCc1ccc(O[C@H]2CC[C@@H](Oc3ccc(Cl)cc3)CC2)cc1-c1cccc(F)c1 |  | Active |
| > 50% | CC(=O)NCCc1ccc(O[C@H]2CC[C@@H](C(F)(F)Cc3ccccc3)CC2)cc1-c1cccc(F)c1 | Active |  |
|  | CO[C@@H]1[C@@H](OC(N)=O)[C@@H](O)[C@H](Oc2ccc3c(O)c(NC(=O)c4ccc(O)c(CC=C(C)C)c4)c(=O)oc3c2C)OC1(C)C | Active |  |
| > 80% | CC(=O)NCCc1ccc(O[C@H]2CC[C@@H](Nc3ccccc3)CC2)cc1-c1cccc(F)c1 | Active |  |
| > 50% | CC(=O)NCCc1ccc(O[C@@H]2CCC[C@@H](Cc3ccccc3)C2)cc1-c1cccc(F)c1 | Active |  |
|  | O[C@H]1CC[C@H](Oc2ccc(Cl)cc2)CC1 | Active |  |
| < 50% | CC(=O)NCCc1ccc(O[C@H]2CC[C@@H](N(C)c3ccccc3)CC2)cc1-c1cccc(F)c1 | Active |  |
| > 50% | CC(=O)NCCc1ccc(O[C@@H]2CCC[C@@H](Oc3ccccc3)C2)cc1-c1cccc(F)c1 | Active |  |
|  | O[C@H]1CC[C@H](Oc2ccc(Cl)cc2Cl)CC1 | Active |  |
|  | O[C@H]1CC[C@@H](Oc2ccc(Cl)cc2Cl)CC1 | Active |  |
| > 50% | CC(=O)NCCc1ccc(O[C@H]2CCC[C@@H](Cc3ccccc3)C2)cc1-c1cccc(F)c1 | Active |  |
| > 50% | CC(=O)NCCc1ccc(O[C@H]2CC[C@@H](Oc3cccc(Cl)c3)CC2)cc1-c1cccc(F)c1 |  | Active |
| > 50% | CC(=O)NCCc1ccc(O[C@H]2CC[C@H](C(F)(F)Cc3ccccc3)CC2)cc1-c1cccc(F)c1 | Active |  |
| > 50% | CC(=O)NCCc1ccc(O[C@H]2CCC[C@@H](Oc3ccccc3)C2)cc1-c1cccc(F)c1 | Active |  |
| > 50% | CC(=O)NCCc1ccc(O[C@H]2CC[C@H](CCc3ccccc3)CC2)cc1-c1cccc(F)c1 | Active |  |
| > 50% | CC(=O)NCCc1ccc(O[C@H]2CCC[C@@H](Sc3ccccc3)C2)cc1-c1cccc(F)c1 | Active |  |
